ChEMBL document CHEMBL1149432, “Evaluation of hydroxyimine as cytochrome P450-selective prodrug structure” (J Med Chem, 2006)
In brackets after ≈: the same amount, converted by molar mass.

What was measured:
[1] = Aqueous solubility at pH 7.4
[2] = Aqueous solubility at pH 5.0
[3] = Metabolic stability by incubation with rat liver microsomes treated with Phenobarbital; format: ADME, Microsome
[4] = Chemical stability at pH 1.0; format: physicochemical; conditions: buffer
[5] = Chemical stability at pH 5.0; format: physicochemical; conditions: buffer
[6] = Chemical stability at pH 7.4; format: physicochemical; conditions: buffer
[7] = Chemical stability at pH 9.0; format: physicochemical; conditions: buffer
[8] = Chemical stability in 80% human serum (pH 7.4); format: physicochemical
[9] = Metabolic stability by incubation with rat liver microsomes; format: ADME, Microsome
[10] = Metabolic stability by incubation with rat liver microsomes treated with Dexamethasone; format: ADME, Microsome
[11] = Metabolic stability by incubation with rat liver microsomes treated with 3-methylcholanthrene; format: ADME, Microsome; conditions: 3-methylcholanthrene-treated
[12] = Metabolic stability by incubation with human liver microsomes; format: ADME, Microsome
[13] = Distribution coefficient at pH 5.0, log D; conditions: octanol/water
[14] = Distribution coefficient at pH 7.4, log D; conditions: octanol/water
[15] = Chemical stability at pH 3.0; format: physicochemical; conditions: buffer
CYP2B6 = biological target: T1, CYP2B6 (Homo sapiens, UniProt P20813); test: Binding constant for compound binding to CYP2B6; format: ADME
T1 sequence (P20813 whole entry): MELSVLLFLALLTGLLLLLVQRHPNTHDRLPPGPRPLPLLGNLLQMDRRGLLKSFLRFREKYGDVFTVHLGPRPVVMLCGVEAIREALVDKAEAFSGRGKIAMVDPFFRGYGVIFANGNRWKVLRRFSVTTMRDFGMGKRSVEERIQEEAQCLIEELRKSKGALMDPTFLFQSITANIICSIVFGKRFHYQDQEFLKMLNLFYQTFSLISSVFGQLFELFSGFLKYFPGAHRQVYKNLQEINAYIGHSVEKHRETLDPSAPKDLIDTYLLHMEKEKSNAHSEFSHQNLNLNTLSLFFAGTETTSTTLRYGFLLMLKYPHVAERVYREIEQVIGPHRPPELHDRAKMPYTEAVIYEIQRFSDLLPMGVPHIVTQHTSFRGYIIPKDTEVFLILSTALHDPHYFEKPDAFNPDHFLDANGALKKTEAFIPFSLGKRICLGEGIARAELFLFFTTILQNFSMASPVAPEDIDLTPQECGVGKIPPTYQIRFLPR

[16] = Half life in rat urine at 37 °C; conditions: in vitro

## CC(C(=O)O)c1cccc(/C(=N\O)c2ccccc2)c1 (stereo not given)
[1]; buffer
  solubility: 116000 µg/mL (≈ 431000 µM)
[2]
  solubility: 1800 µg/mL (≈ 6680 µM)
[3]
  half-life: 84 h
[4]
  half-life: 6 h
[5]
  T1/2: Not Active
[6]
  T1/2: Not Active
[7]
  T1/2: Not Active
[8]
  half-life: 796 h
[9]
  half-life: 167 h
[10]
  half-life: 72 h
[11]
  half-life: 100 h
[12]
  half-life: 83.6 h

## COc1ccc2cc(CC/C(C)=N/O)ccc2c1
[1]; buffer
  solubility: 2 µg/mL (≈ 8.22 µM)
[2]
  solubility: 3 µg/mL (≈ 12.3 µM)
[3]
  half-life: 0.467 h
[13]
  logD: 3.6
[14]
  logD: 3.6
[4]
  half-life: 0.1 h
[15]
  half-life: 0.183 h
[5]
  half-life: 16.3 h
[6]
  half-life: 720 h
[7]
  T1/2: Not Active
[8]
  half-life: 591 h
[9]
  half-life: 0.967 h
[10]
  half-life: 0.767 h
[11]
  half-life: 0.0333 h
[12]
  half-life: 0.85 h
CYP2B6
  Km: 70 µM
[16]
  half-life: 69 h

## CC(C(=O)O)c1cccc(C(=O)c2ccccc2)c1 (stereo not given) [KETOPROFEN]
[13]
  logD: 2.1
[14]
  logD: 0.008

## COc1ccc2cc(CCC(C)=O)ccc2c1 [NABUMETONE]
[1]; aqueous
  solubility: 4.3 µg/mL (≈ 18.8 µM)
[2]
  solubility: 6.4 µg/mL (≈ 28 µM)
[13]
  logD: 3.2
[14]
  logD: 3.3
